Assay results as given in patent publication US6693083B2, “Conjugates targeted to the interleukin-2 receptor” (Watson Pharmaceuticals, Inc., priority 1997, dated 2004).
Entries after “also recorded” stand apart in the source; their conditions may differ. Read-outs that look alike come from different tables or passages of the source. Where no end group is shown, it is not given here. PEG = not defined here; ADR = adriamycin

Tests used:
[1] = tested on: mouse CTLL-2 cells; assay: In vitro cytotoxic activity against mouse CTLL-2 cells (MTS cell viability assay)
Experimental: CTLL-2 cells express the IL-2 high affinity receptor. […] Thereafter, cell viability was assessed by a colorimetric method using the tetrazolium compound MTS (3-(4,5-dimethylthiazol-2-yl)-5-(3-carboxymethoxyphenyl)-2-(4-sulfophenyl)-2H-tetrazolium, inner salt) and an electron coupling reagent, PMS (phenazine methosulfate). A. J. Cory et al., 3 Cancer Commun. […] MTS is bioreduced by living cells into a soluble formazan product. The absorbence of the formazan at 490 nm can be measured directly from 96 well assay plates without additional processing. The quantity of formazan product as measured by the absorbence at 490 nm is directly proportional to the number of living cells in culture. Reagents for the MTS assay were obtained from Promega Corp. (Madison, Wis.). […] The plate was then further incubated at 37° C. in a humidified, 5% CO2 atmosphere for 4 hours. The absorbence of each well was then measured at 490 nm with an EL311 Microplate Autoreader (Bio-Tek Instruments). The mean absorbence for each treatment was then calculated, and the percent cytotoxicity was determined using the formula: [formula]
wherein AS represents the mean absorbence for each treatment and AC represents mean absorbence of the control treatment, i.e. cells not exposed to a conjugate.

[2] = tested on: B10.RIII mice; assay: Treatment of collagen-induced arthritis (CIA) in B10.RIII mice; conditions: 2 mg/kg i.p.; for weight loss: alternate day treatment, observed for 84 days, PBS control about 5%±5%
Experimental: B10.RIII mice were injected with CII (200 μg) emulsified with complete Freund's adjuvant (CFA; 200 μg H37Ra). At day 21, mice were boosted with 100 μg of CII, randomized for CIA severity (13/group), and an alternate day treatment protocol was begun.

[3] = tested on: IL-2-induced proliferation of murine splenocytes; assay: Inhibition of IL-2-induced proliferation of murine splenocytes (trypan blue viable cell count); assay type: cell-based, mouse; conditions: for specific binding to the IL-2 receptor: concluded from inhibition of IL-2-induced proliferation (Example 20)
Experimental: The in vitro effects of IL-2-receptor-targeted conjugates on IL-2-induced proliferation of murine splenocytes was examined.
A sterile splenocyte suspension was prepared as follows. Spleens were aseptically removed from male C57 BL/6 mice and placed in sterile tissue culture medium (RPMI plus 10% fetal calf serum). The spleens were teased apart and gently aspirated using a Pasteur pipet. The resulting spleen cell suspension was then filtered through sterile gauze and centrifuged at 150×g for 10 minutes at 20° C. […] After 30 seconds, an equal volume of tissue culture medium was added to the suspension to restore isotonicity. The cell suspension was again centrifuged at 150×g for 10 minutes at 20° C., and the resulting cell pellet was washed once using tissue culture medium. The washed cell pellet was finally resuspended in tissue culture medium, and cell density was adjusted to 5×10^6 cells/ml.
To the wells of a 96-well assay plate (Falcon MICROTEST III), 50 μl volumes of the splenocyte suspension were added. Competitor (conjugate) solutions were prepared and diluted in tissue culture medium and added to the wells of the assay plate in 25 μl volumes. To control wells, 25 μl of tissue culture medium was added. […] To the wells of the assay plate, 25 μl of either tissue culture medium or a solution containing recombinant human IL-2 (Pharmingen) at a concentration of 20 ng/ml (in tissue culture medium) was added.
Final results were quantitated as follows. Viable cell counts were performed for each separate well of the assay plate using the trypan blue exclusion method. Trypan blue is taken up and imparts a blue color to dead cells. Briefly, an aliquot of cells was twice diluted in 0.4% trypan blue stain (Sigma Chemical Co., St. Louis, Mo.) and incubated for 5 minutes before counting with a hemacytometer and an inverted microscope. The percentage of viable cells was calculated as the number of unstained cells per unit volume divided by the total number of stained and unstained cells×100. Cell counts for each duplicate set of wells were averaged, and cell proliferation was calculated as percent change from control cells using the following formula: [formula]
Percent inhibition of IL-2 induced proliferation was calculated as follows. [formula]

[4] = 48 hours incubation, MTS assay, compared by adriamycin concentration

COc1cccc2c1C(=O)c1c(O)c3c(c(O)c1C2=O)C[C@@](O)(C(=O)CO)C[C@@H]3O[C@H]1C[C@H](N)[C@H](O)[C@H](C)O1 [adriamycin, reference compound]
cytotoxicity against CTLL-2 T cells (FIG. 1) [1]: rapidly diffuses into the cells and kills them

PEG-Gly-Phe-Leu-Gly-ADR (GFLG; PEG and adriamycin conjugated; OTHER INFORMATION: Synthetic Construct) [PEG-GFLG-ADR, reference compound]
weight loss [2]: about 10%±8% | cytotoxicity against CTLL-2 T cells (FIG. 1) [1, 4]: much lower than that required for PEG-GFLG-ADR

PEG-TT23-ADR ({PEG}-TGLNRILLGFLG-{ADR}; reading uncertain)
arthritis severity (cumulative daily arthritis scores) ([2]; alternate day treatment from day 21, observed for 84 days, compared to PBS control (P≦0.02)): significantly greater number of mice with only minimum arthritis | weight loss [2]: about 3%±6% | cytotoxicity against CTLL-2 T cells (FIG. 1) [1, 4]: kills such CTLL-2 T cells at concentrations much lower than that required for PEG-GFLG-ADR; also recorded: requires higher concentrations of adriamycin than unconjugated adriamycin | specific binding to the IL-2 receptor [3]: specifically bind to the IL-2 receptor

PEG-TT23: prepared according to Example 1 except that no adriamycin was conjugated; PEG coupled to peptide TT23 (SEQ ID NO:22) (TGLNRILLGFLG; not fully specified (N-terminus); also: PEG conjugate, attachment site not given here)
specific binding to the IL-2 receptor [3]: specifically binds to the IL-2 receptor | inhibition of IL-2-induced proliferation of murine splenocytes (FIG. 2) ([3]; recombinant human IL-2, 48 hours, trypan blue exclusion): very effectively inhibits proliferation

TGLNRILLGFLG [peptide TT23]
amount needed to achieve similar levels of inhibition, relative to PEG-TT23 ([3]; IL-2-induced proliferation of murine splenocytes): about 100 fold
